Reference: the supplement of paper PMC10307832

Assays:
Experiment in all cases: relative viability (nuclei count vs DMSO), 5 days (fraction); higher = more cells survive
Dactolisib + Bortezomib = compound: Cn1c(=O)n(-c2ccc(C(C)(C)C#N)cc2)c2c3cc(-c4cnc5ccccc5c4)ccc3ncc21 [Dactolisib] + CC(C)C[C@H](NC(=O)[C@H](Cc1ccccc1)NC(=O)c1cnccn1)B(O)O [Bortezomib] (partner 0.002 µM)
In short: (§1)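 After 5 days of treatment, lung cancer cells in 1536-well plates were fixed and stained in a single step (final 0.05% Triton X-100, 1% formaldehyde, 1 ug/ml Hoechst) and their nuclei counted on 4× images. Treatment had been applied by pin tool the day after seeding as one drug alone or as a fixed anchor-drug dose with five library-drug doses (not always all listed) in √10 steps. Relative viability is the nuclei count of treated wells divided by that of vehicle wells, and values are medians of duplicate plates.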

Dactolisib + Palbociclib = compound: Cn1c(=O)n(-c2ccc(C(C)(C)C#N)cc2)c2c3cc(-c4cnc5ccccc5c4)ccc3ncc21 [Dactolisib] + CC(=O)c1c(C)c2cnc(Nc3ccc(N4CCNCC4)cn3)nc2n(C2CCCC2)c1=O [Palbociclib] (partner 0.5 µM)
In short: as §1

Dactolisib + AZD7762 = compound: Cn1c(=O)n(-c2ccc(C(C)(C)C#N)cc2)c2c3cc(-c4cnc5ccccc5c4)ccc3ncc21 [Dactolisib] + NC(=O)Nc1cc(-c2cccc(F)c2)sc1C(=O)N[C@H]1CCCNC1 [AZD7762] (partner 0.2 µM)
In short: as §1

AZ505 + Alpelisib = compound: C1CCC(CC1)N(CCNCCC2=C3C(=C(C=C2)O)NC(=O)CO3)C(=O)CCNCCC4=CC(=C(C=C4)Cl)Cl [AZ505] + Cc1nc(NC(=O)N2CCC[C@H]2C(N)=O)sc1-c1ccnc(C(C)(C)C(F)(F)F)c1 [Alpelisib] (partner 2 µM)
In short: as §1

Row | Cell Line | relative viability (Dactolisib + Bortezomib; first compound 0.002 µM) | relative viability (Dactolisib + Bortezomib; first compound 0.006325 µM) | relative viability (Dactolisib + Bortezomib; first compound 0.02 µM) | relative viability (Dactolisib + Bortezomib; first compound 0.06325 µM) | relative viability (Dactolisib + Bortezomib; first compound 0.2 µM) | relative viability (Dactolisib + Palbociclib; first compound 0.002 µM) | relative viability (Dactolisib + Palbociclib; first compound 0.006325 µM) | relative viability (Dactolisib + Palbociclib; first compound 0.02 µM) | relative viability (Dactolisib + Palbociclib; first compound 0.06325 µM) | relative viability (Dactolisib + Palbociclib; first compound 0.2 µM) | relative viability (Dactolisib + AZD7762; first compound 0.002 µM) | relative viability (Dactolisib + AZD7762; first compound 0.006325 µM) | relative viability (Dactolisib + AZD7762; first compound 0.02 µM) | relative viability (Dactolisib + AZD7762; first compound 0.06325 µM) | relative viability (Dactolisib + AZD7762; first compound 0.2 µM) | relative viability (AZ505 + Alpelisib; first compound 0.08 µM) | relative viability (AZ505 + Alpelisib; first compound 0.253 µM) | relative viability (AZ505 + Alpelisib; first compound 0.8 µM) | relative viability (AZ505 + Alpelisib; first compound 2.53 µM) | relative viability (AZ505 + Alpelisib; first compound 8 µM)
1 | LCLC-97TM1 | 0.766 | 0.489 | 0.528 | 0.525 | 0.128 | 0.217 | 0.252 | 0.194 | 0.161 | 0.0966 | 0.197 | 0.325 | 0.291 | 0.18 | 0.135 | 0.327 | 0.333 | 0.26 | 0.247 | 0.363
2 | NCI-H727 | 1.03 | 0.58 | 0.872 | 0.35 | 0.267 |  | 0.693 | 0.658 | 0.581 | 0.513 |  | 0.519 | 0.468 | 0.47 | 0.45 | 0.535 | 0.621 | 0.505 | 0.598 | 0.694
3 | NCI-H1355 | 1.21 | 1.21 | 1.13 | 0.937 | 0.525 | 0.406 | 0.368 | 0.352 | 0.255 | 0.174 | 0.834 | 0.73 | 0.699 | 0.419 | 0.308 | 0.775 | 0.769 | 0.834 | 0.65 | 0.902
4 | HOP-62 | 0.884 | 0.867 | 0.518 | 0.41 | 0.252 | 0.467 | 0.45 | 0.383 | 0.288 | 0.147 | 0.513 | 0.403 | 0.657 | 0.261 | 0.198 | 0.94 | 1.17 | 0.889 | 0.844 | 1.04
5 | NCI-H2085 | 1.1 | 0.884 | 0.97 | 0.662 | 0.376 | 0.491 | 0.446 | 0.382 | 0.373 | 0.308 | 0.984 | 0.9 | 0.877 | 0.731 | 0.281 | 0.825 | 0.905 | 0.884 | 1.01 | 1.01
